Test results taken from patent US11713331B2, “Benzene 1,4-bis(bisphosphonic acid)-based metal complexes, method of synthesis and applications thereof” (priority 2020, dated 2023).
Like-named read-outs stand apart in the source and are kept apart here.

Key:
[1] = after 7 days, binding curve before reported; cited from earlier work
[2] = tested on: human breast cancer MDA-MB-231 cell line; format: cell-based; details: 0-200 μM
Method: (§1) Cell Culture Methods. Media with DMEM, 5% FBS, and 1% Pen-Strep were used to incubate MDA-MB-231 cells at 37° C. with 5% CO2. The osteoblast hFOB 1.19 cell line was incubated at 34° C., 5% CO2, in 1:1 DMEM:F-12 supplemented with 0.3 mg/mL G418, and 10% FBS. Cell passages were performed weekly at 80.0% confluency. Media exchanges were carried out twice every 7 d.
(§2) Cell treatment. […] Cells (MDA-MB-231, hFOB 1.19) were seeded in 96 well plates at a density of 2.5×10^5 cells/mL. The 96 well plates were incubated at 37° C. with 5% CO2 for 24 h. Three 96 well plates were prepared per time point (24, 48, and 72 h). […] Cells were incubated at 37° C. and 5% CO2 for 24, 48, and 72 h. Control groups were treated with media (MDA-MB-231 with DMEM, 1% Pen-Strep) and (hFOB 1.19 with 1:1 DMEM:F-12, 0.3 mg/mL G418). Cell proliferation was determined after each point time of treatment. A 10% AlamarBlue® solution was previously prepared using PBS. The media was removed from all 96 well plates and 100 μL of AlamarBlue® solution was added. The 96 well plates were incubated for 4 h (MDA-MB-231 at 37° C., 5% CO2) and (hFOB 1.19 at 34° C., 5% CO2). The fluorescence was measured at 560 nm of excitation and lambda max 590 nm of emission. […] The experiments for the % RCL were performed employing the same conditions previously mentioned for the IC50 determination. All experiments were accomplished in triplicate. The GraphPad Prism 8 vs 8.3.1 was utilized to generate the IC50 curves and to plot the % RCL graphs.
(§3) Furthermore, the cytotoxicity of these materials was also achieved using the osteoblast-like hFOB 1.19 cell line, within work, these immortalized human cells were used to simulate the human bone microenvironment (not cancerous cells). […] Control groups were treated with media (DMEM, 1% Pen-Strep, MDA-MB-231) and (1:1 DMEM:F12, 0.3 mg/mL G418, hFOB 1.19), respectively. AlamarBlue® assay was employed to determine cell proliferation after each time point.
as §1, with “Methods—Media” for “Methods. Media”, “CO2” for “CO2,”
(§4) Cell seeding—Both cells were seeded in 96 well plates at a density of 2.5×10^5 cells/mL. The 96 well plates were incubated at 37° C. (MDA-MB-231) and 34° C. […] Experiments were performed in triplicate.
(§5) (MDA-MB-231) and 34° C. […] All experiments were accomplished in triplicate.

[3] = tested on: normal osteoblast-like hFOB 1.19 cell line; format: cell-based; details: 0-200 μM
Method: as §1, §2, §3
as §1, with “Methods—Media” for “Methods. Media”, “CO2” for “CO2,”
as §4, §5

[4] = Binding assay to hydroxyapatite (HA); details: 0.5 mg/mL, 20 mg HA, PBS
Method: Hydroxyapatite (HA) treatment. […] The experiment was carried out for 0-12 days, in stirring at 120 rpm. […] The supernatant was centrifuged for 8 min (500 rcf) and the absorbance was measured at 231 nm. Solid samples were characterized by SEM-EDS, TGA, and PXRD.
The experiment was carried out for 0-12 days, in constant stirring at 120 rpm. […] The supernatant was centrifuged for 8 min (500 rcf) and the absorbance was measured at 231 nm. Solid samples were characterized by SEM-EDS and PXRD.

Compound | % Binding to HA [1] [%] | IC50 ([2]; MDA-MB-231, 24 h of treatment) [µM] | IC50 ([2]; MDA-MB-231, 48 h of treatment) [µM] | IC50 ([2]; MDA-MB-231, 72 h of treatment) [µM] | IC50 ([3]; hFOB 1.19, 24 h of treatment) [µM] | IC50 ([3]; hFOB 1.19, 48 h of treatment) [µM] | IC50 ([3]; hFOB 1.19, 72 h of treatment) [µM] | % Binding to HA ([4]; 0 d) [%] | % Binding to HA ([4]; 1 d) [%] | % Binding to HA ([4]; 2 d) [%] | % Binding to HA ([4]; 3 d) [%] | % Binding to HA ([4]; 4 d) [%]
NCCCC(O)(P(=O)(O)O)P(=O)(O)O [ALEN, Alendronic acid] | > 95 | – | – | – | – | – | – | – | – | – | – | –
benzene 1,4-bis(bisphosphonic acid) [BBPA] | – | > 200 | > 200 | > 200 | > 200 | > 200 | > 200 | 0 | 1 | 39 | 54 | 74
